Laboratory results reported in patent US10687529B2, “Nematotoxic composition of synergistic effect, use of a nematotoxic composition of synergistic effect” (EMPRESA BRASILEIRA DE PESQUISA AGROPECUARIA-EMBRAPA, priority 2012, dated 2020).

What was measured:
[1] = system: second-stage juveniles (J2) of M. incognita; experiment: in vitro bioassay against second-stage juveniles (J2), 48 hours' exposure; type: in vivo; conditions: for % paralyzed namatodes: 0.17 g/L (of each compound in the composition)
Protocol: FIG. 1—effect of the aqueous crude extracts of seeds of antagonistic plants on (J2) of M. incognita. The bars represent the percentage of live nematodes after 48 hours' exposure. Concentration of 1 mg of each extract for a final volume of 0.3 mL and 100 second-stage juveniles was used in the bioassay in triplicate, having distilled water as negative control. […]
(§1) FIG. 9—(A) Bioassay showing the effect of the commercial compounds on second-stage juveniles of M. incognita after 48 hours' exposure. 1—Control dH20, 2—DECE, 3—Glycose 10%, 4—Glycose 20%, 5—D-Pinitol (80 ug), 6—D-Pinitol (150 ug), 7—L-canavanina (80 ug), 8—L-canavanina (150 ug), 9—palmitic acid (80 ug), 10—palmitic acid (150 ug), 11—citric acid (80 ug), 12—citric acid (150 ug), 13—malic acid (80 ug), 14—malic acid (150 ug), 15—cis-aconitic acid (80 ug), 16—cis-anonitic acid (150 ug), 17—trans-anonitic acid (80 ug), 18—trans-aconitic acid (150 ug), 19—50 mM Tris/HCl pH 8, 20—50 mM acetic acid pH 5, 21—L-phenylamine (80 ug), 22—L-phenylamine (150 ug), 23—L-methionine (80 ug), 24—L-methionine (150 ug), 25—L-tryptophan (80 ug), 26—L-tryptophan (150 ug), 27—S-carboxymethylcistein (80 ug), 28—S-carboxymethylcisteine (150 ug), 29—Zantotoxine (80 ug), 30—Zantotoxine (150 ug), and 31—Glucose 20%+L-canavanine (15)ug). B—Evaluation of the effect of the different commercial compounds after the recovery assay using distilled water.
FIG. 10—(A) Bioassay showing the effect of the commercial compounds and their compositions on second-stage juveniles of M. incognita […] after 48 hours' exposure. C+ positive control (extract); C—: negative control (water); 2: palmitic acid; 3: S-carboxymethylcisteine; 4: trans-aconitic acid; 5: glucose. […] (B)—Evaluation of the effect of the different commercial compounds and their compositions after the recovery assay using distilled water. C+ positive control (extract); 2: palmitic acid; 3: s-carboxymethylcisteine; 4: trans-aconitic acid; 5: glucose.

J2 of M. incognita = experiment: recovery assay using distilled water, certifying nematicidal or nematostatic effect; type: in vivo
Protocol: as §1
FIG. 10—(A) Bioassay showing the effect of the commercial compounds and their compositions on second-stage juveniles of M. incognita […] after 48 hours' exposure. C+ positive control (extract); C—: negative control (water); 2: palmitic acid; 3: S-carboxymethylcisteine; 4: trans-aconitic acid; 5: glucose. Concentrations of the compositions: 3+4, 3+5=0.25 g/L (each active compound of the composition); 3+4+5=0.17 g/L each active compound of the composition. (B)—Evaluation of the effect of the different commercial compounds and their compositions after the recovery assay using distilled water. C+ positive control (extract); 2: palmitic acid; 3: s-carboxymethylcisteine; 4: trans-aconitic acid; 5: glucose. Concentrations of the compositions: 3+4, 3+5, 4+5=0.25 g/L (each active compound of the composition); 3+4+5=0.17 g/L each active compound of the composition.

Row | Compound | J2 paralyzed ([1]; 80 μg/300 μL) | nematicidal activity after the recovery assay (J2 of M. incognita; 150 μg/300 μL) [%] | J2 paralyzed ([1]; 150 μg/300 μL) | also measured
1 | O=C(O)CC(O)(CC(=O)O)C(=O)O [citric acid] | very low percentage | 25 |  | 
2 | S-carboxymethylcisteine | about 90% |  | about 90% | % paralyzed namatodes [1]: 43.03%; J2 recovering the mobility after the recovery test (J2 of M. incognita; 80 μg/300 μL): most J2 recovering the movement; J2 recovering the mobility after the recovery test (J2 of M. incognita; 150 μg/300 μL): most J2 recovering the movement
3 | N=C(N)NOCC[C@H](N)C(=O)O [L-canavanine] | did not exhibit any nematotoxic activity |  |  | juveniles remaining paralyzed after the recovery assay (nematicidal activity) (J2 of M. incognita; 105 μg/300 μL): 25%
4 | N[C@@H](Cc1c[nH]c2ccccc12)C(=O)O [L-triptofane] | not capable of affecting the J2 |  | not capable of affecting the J2 | 
5 | CO[C@H]1[C@H](O)[C@@H](O)[C@@H](O)[C@H](O)[C@@H]1O [D-pinitol] | did not exhibit any toxic effect |  | did not exhibit any toxic effect | 
6 | O=C(O)/C=C(/CC(=O)O)C(=O)O [cis-aconitic acid] | very low percentage | 40 |  | 
7 | N[C@@H](Cc1ccccc1)C(=O)O [L-phenylamnine] | not capable of affecting the J2 |  | not capable of affecting the J2 | 
8 | O=C(O)CC(O)C(=O)O (stereo not drawn) [malic acid] | very low percentage | 18 |  | 
9 | CCCCCCCCCCCCCCCC(=O)O [palmitic acid] | 98% |  |  | J2 recovering the mobility after the recovery test (J2 of M. incognita; 80 μg/300 μL): 90%; J2 recovering the mobility after the recovery test (J2 of M. incognita; 150 μg/300 μL): 90%
10 | O=C(O)/C=C(\CC(=O)O)C(=O)O [trans-aconitic acid] | 90% | 98 |  | % paralyzed namatodes [1]: 11.12%; % of paralyzed nematodes ([1]; 0.25 g/L (of each compound in the composition)): 27.08%
11 | COc1c2occc2cc2ccc(=O)oc12 [Xantotoxin] | 87% |  | 87% | J2 recovering the mobility after the recovery test (J2 of M. incognita; 80 μg/300 μL): did not recover the mobility; J2 recovering the mobility after the recovery test (J2 of M. incognita; 150 μg/300 μL): did not recover the mobility
